From PubChem BioAssay (NCI)
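Grown in 96-well plates, cells were treated for 48 hours with each compound at five concentrations. Insufficient inhibition: endpoint recorded as highest concentration tested. The concentration for 50% growth inhibition is given as GI50. TGI is the concentration that stops growth completely.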

Tests used:
Test in all cases: DTP human tumour cell line panel, 48 h
786-0 renal = system: 786-0 renal
A498 renal = system: A498 renal
A549 NSCLC = system: A549 NSCLC
ACHN renal = system: ACHN renal
BT-549 breast = system: BT-549 breast
CAKI-1 renal = system: CAKI-1 renal
CCRF-CEM leukemia = system: CCRF-CEM leukemia
COLO 205 colon = system: COLO 205 colon
DU-145 prostate = system: DU-145 prostate
EKVX NSCLC = system: EKVX NSCLC
HCC-2998 colon = system: HCC-2998 colon
HCT-116 colon = system: HCT-116 colon
HCT-15 colon = system: HCT-15 colon
HL-60(TB) leukemia = system: HL-60(TB) leukemia
HOP-62 NSCLC = system: HOP-62 NSCLC
HOP-92 NSCLC = system: HOP-92 NSCLC
HS 578T breast = system: HS 578T breast
HT29 colon = system: HT29 colon
IGROV1 ovarian = system: IGROV1 ovarian
K-562 leukemia = system: K-562 leukemia
KM12 colon = system: KM12 colon
LOX IMVI melanoma = system: LOX IMVI melanoma
MALME-3M melanoma = system: MALME-3M melanoma
MCF7 breast = system: MCF7 breast
MDA-MB-231 breast = system: MDA-MB-231 breast
MDA-MB-435 = system: MDA-MB-435
MOLT-4 leukemia = system: MOLT-4 leukemia
NCI-H226 lung = system: NCI-H226 lung
NCI-H23 lung = system: NCI-H23 lung
NCI-H460 lung = system: NCI-H460 lung
NCI-H522 lung = system: NCI-H522 lung
NCI/ADR-RES ovarian = system: NCI/ADR-RES ovarian
OVCAR-3 ovarian = system: OVCAR-3 ovarian
OVCAR-4 ovarian = system: OVCAR-4 ovarian
OVCAR-5 ovarian = system: OVCAR-5 ovarian
OVCAR-8 ovarian = system: OVCAR-8 ovarian
PC-3 prostate = system: PC-3 prostate
RPMI-8226 leukemia = system: RPMI-8226 leukemia
RXF 393 renal = system: RXF 393 renal
SF-268 CNS = system: SF-268 CNS
SF-295 CNS = system: SF-295 CNS
SF-539 CNS = system: SF-539 CNS
SK-MEL-2 melanoma = system: SK-MEL-2 melanoma
SK-MEL-28 melanoma = system: SK-MEL-28 melanoma
SK-MEL-5 melanoma = system: SK-MEL-5 melanoma
SK-OV-3 ovarian = system: SK-OV-3 ovarian
SN12C renal = system: SN12C renal
SNB-19 CNS = system: SNB-19 CNS
SNB-75 CNS = system: SNB-75 CNS
SR leukemia = system: SR leukemia
SW-620 colon = system: SW-620 colon
T-47D breast = system: T-47D breast
TK-10 renal = system: TK-10 renal
U251 CNS = system: U251 CNS
UACC-257 melanoma = system: UACC-257 melanoma
UACC-62 melanoma = system: UACC-62 melanoma
UO-31 renal = system: UO-31 renal

C#CCN(C)CCCOc1ccc(NC(=O)CCCCCCC(=O)NO)cc1Cl
GI50 (786-0 renal): 3.52 µM
TGI (786-0 renal): 25.7 µM
GI50 (A498 renal): 1160 nM
TGI (A498 renal): 3.04 µM
GI50 (A549 NSCLC): 2140 nM
TGI (A549 NSCLC): 13.6 µM
GI50 (ACHN renal): 2820 nM
TGI (ACHN renal): 12.7 µM
GI50 (BT-549 breast): 3.48 µM
TGI (BT-549 breast): 30 µM
GI50 (CAKI-1 renal): 1650 nM
TGI (CAKI-1 renal): 8.08 µM
GI50 (CCRF-CEM leukemia): 375 nM
TGI (CCRF-CEM leukemia): > 100 µM
GI50 (COLO 205 colon): 648 nM
TGI (COLO 205 colon): 2450 nM
GI50 (DU-145 prostate): 1680 nM
TGI (DU-145 prostate): > 100 µM
GI50 (EKVX NSCLC): 3.47 µM
TGI (EKVX NSCLC): > 100 µM
GI50 (HCC-2998 colon): 1470 nM
TGI (HCC-2998 colon): 4.23 µM
GI50 (HCT-116 colon): 437 nM
TGI (HCT-116 colon): 6.26 µM
GI50 (HCT-15 colon): 5.03 µM
TGI (HCT-15 colon): > 100 µM
GI50 (HL-60(TB) leukemia): 589 nM
TGI (HL-60(TB) leukemia): > 100 µM
GI50 (HOP-62 NSCLC): 1850 nM
TGI (HOP-62 NSCLC): 24 µM
GI50 (HOP-92 NSCLC): 725 nM
TGI (HOP-92 NSCLC): 4.56 µM
GI50 (HS 578T breast): 1150 nM
TGI (HS 578T breast): 7.31 µM
GI50 (HT29 colon): 1420 nM
TGI (HT29 colon): 43 µM
GI50 (IGROV1 ovarian): 1230 nM
TGI (IGROV1 ovarian): 4.34 µM
GI50 (K-562 leukemia): 549 nM
TGI (K-562 leukemia): > 100 µM
GI50 (KM12 colon): 1910 nM
TGI (KM12 colon): 15.9 µM
TGI (LOX IMVI melanoma): 120 nM
GI50 (MALME-3M melanoma): 373 nM
TGI (MALME-3M melanoma): 28.4 µM
GI50 (MCF7 breast): 813 nM
TGI (MCF7 breast): 17.4 µM
GI50 (MDA-MB-231 breast): 1830 nM
TGI (MDA-MB-231 breast): 16.4 µM
GI50 (MDA-MB-435): 835 nM
TGI (MDA-MB-435): 5.97 µM
GI50 (MOLT-4 leukemia): 338 nM
TGI (MOLT-4 leukemia): > 100 µM
GI50 (NCI-H226 lung): 4.13 µM
TGI (NCI-H226 lung): 30.6 µM
GI50 (NCI-H23 lung): 2440 nM
TGI (NCI-H23 lung): 18.9 µM
GI50 (NCI-H460 lung): 1100 nM
TGI (NCI-H460 lung): > 100 µM
GI50 (NCI-H522 lung): 431 nM
TGI (NCI-H522 lung): 8.2 µM
GI50 (NCI/ADR-RES ovarian): 5.41 µM
TGI (NCI/ADR-RES ovarian): > 100 µM
GI50 (OVCAR-3 ovarian): 1480 nM
TGI (OVCAR-3 ovarian): 13.2 µM
GI50 (OVCAR-4 ovarian): 4.41 µM
TGI (OVCAR-4 ovarian): > 100 µM
GI50 (OVCAR-5 ovarian): 1700 nM
TGI (OVCAR-5 ovarian): 45.7 µM
GI50 (OVCAR-8 ovarian): 793 nM
TGI (OVCAR-8 ovarian): > 100 µM
GI50 (PC-3 prostate): 1530 nM
TGI (PC-3 prostate): > 100 µM
GI50 (RPMI-8226 leukemia): 1050 nM
TGI (RPMI-8226 leukemia): 6.78 µM
GI50 (RXF 393 renal): 272 nM
TGI (RXF 393 renal): 1110 nM
GI50 (SF-268 CNS): 2920 nM
TGI (SF-268 CNS): 16.4 µM
GI50 (SF-295 CNS): 1680 nM
TGI (SF-295 CNS): 4.71 µM
GI50 (SF-539 CNS): 1660 nM
TGI (SF-539 CNS): 17 µM
GI50 (SK-MEL-2 melanoma): 3.05 µM
TGI (SK-MEL-2 melanoma): 21.8 µM
GI50 (SK-MEL-28 melanoma): 1440 nM
TGI (SK-MEL-28 melanoma): 11.3 µM
GI50 (SK-MEL-5 melanoma): 853 nM
TGI (SK-MEL-5 melanoma): 2430 nM
GI50 (SK-OV-3 ovarian): 1540 nM
TGI (SK-OV-3 ovarian): 12.6 µM
GI50 (SN12C renal): 2780 nM
TGI (SN12C renal): > 100 µM
GI50 (SNB-19 CNS): 2260 nM
TGI (SNB-19 CNS): 17.7 µM
GI50 (SNB-75 CNS): 606 nM
TGI (SNB-75 CNS): 32.1 µM
GI50 (SR leukemia): 530 nM
TGI (SR leukemia): > 100 µM
GI50 (SW-620 colon): 698 nM
TGI (SW-620 colon): 4.31 µM
GI50 (T-47D breast): 608 nM
TGI (T-47D breast): > 100 µM
GI50 (TK-10 renal): 1410 nM
TGI (TK-10 renal): 11 µM
GI50 (U251 CNS): 1410 nM
TGI (U251 CNS): 7.21 µM
GI50 (UACC-257 melanoma): 587 nM
TGI (UACC-257 melanoma): 13.4 µM
GI50 (UACC-62 melanoma): 570 nM
TGI (UACC-62 melanoma): 4.18 µM
GI50 (UO-31 renal): 1500 nM
TGI (UO-31 renal): 7.04 µM
